Results taken from article PMC6145916, “Interaction of mitochondrial fission factor with dynamin related protein 1 governs physiological mitochondrial function in vivo” (Scientific Reports, 2018).
Where no end group is shown, it is not given here.

System: striatal neurons
Assay: Transmission electron microscopy of striatum
Assay type: in vivo, mouse
Settings: 3 mg/Kg/day, 8 weeks, WT mice; 806 (TAT) and 1109 (P259) mitochondria from ten images per condition
Excerpt: (a) Quantification of mitochondrial Drp1 content relative to ALDH2 (a mitochondrial matrix enzyme) in the mitochondrial fraction isolated from total brain lysate of wild-type mice (Western blot shown in Fig. S3B) (n = 4 mice). (b) ATP content in brain tissue of wild-type mice (n = 4 mice, 2 replicates). (c) Representative transmission electron microscopy images of the striatum from wild-type mice. […] The first principal component represents 42% of the variation. (f) Local linear embedding dimensionality reduction and visualization of all behaviors collected weekly from TAT- (black) or P259- (purple) treated WT and TAT- (white) treated R6/2 mice over the course of 8 weeks. […] All behavior and survival tests were conducted by an experienced observer who was blinded to the treatment groups. Data are mean ± s.e.
Five-week old R6/2 HD mice and their wild-type littermates (a total of 60 mice) were implanted subcutaneously with a 28-d Alzet osmotic pump with either P259-TAT or TAT control peptide (15 mice per group) to be delivered continuously at a rate of 3 mg/Kg/day, as previously described. All mice were implanted twice for a total of an 8-week treatment. 20 of the WT mice were implanted 3 times for a total of a 12-week treatment at 3 mg/Kg/day. […]
To quantify mitochondrial motility, the images at time 0 and 150 seconds w ere overlaid. […]

YGRKKRRQRRRGSGIIQLPEIVVV-NH2 (C-terminus assumed) [P259]
mitochondrial size and shape in striatal neurons (electron microscopy): larger and more elongated mitochondria in striatal neurons
